From patent publication EP4810508A1, “ARABINOSE DERIVATIVE COMPOUND, AND COMPOSITION COMPRISING SAME FOR PREVENTING OR TREATING DEGENERATIVE BRAIN DISEASES” (Digmbio. Inc., priority 2023, dated 2025)
Read-outs that look alike come from different tables or passages of the source.

Tested on: HRE/Luc/HEK293 cells
Assay: HRE (Hypoxia Response Element) luciferase assay
Assay type: cell-based, human
Settings: for fold induction at 10 µM / fold induction at 100 µM: Homo sapiens
Description: • (a) HRE assay: Confirmation of increased in HRE expression levels by the test substance relative to the vehicle in HRE/Luc/HEK293 cells • * Less than a twofold increase at 100 µM, • ** More than a twofold increase at 100 µM, • *** More than a twofold increase at 10 µM, • **** More than a twofold increase at 1 µM, • Not performed.
It has been reported that in the brains of AD patients, blood supply is mostly insufficient, resulting in oxygen levels being up to 50% lower than those of normal individuals, leading to increased oxidative stress (ROS) and neuroinflammation. It has also been studied that when the HIF-1α (hypoxia inducible factor-1) factor binds to the HRE (hypoxia response element), it increases VEGF (vascular endothelial growth factor), which promotes the formation of new blood vessels, thereby increasing oxygen levels in the brain and helping to inhibit nerve cell damage.
A reporter gene containing luciferase, capable of verifying the level of HRE expression, was inserted into HEK-293 human embryonic kidney cells, and HRE/Luc/HEK293 cells were constructed by inserting a plasmid (HRE/Luc) with luciferase attached downstream of the HRE promoter that binds to HIF-1α using lipofectamine (Invitrogen).
To perform HRE luciferase analysis, HRE/Luc/HEK293 cells were seeded in 96-well culture plates at a cell density of 4 x 10^4 per well in minimal essential medium (MEM) containing 10% fetal bovine serum. After one day, the cell medium was removed and replaced with medium mixed with various concentrations of example compounds. Six hours after compound pretreatment, HRE/Luc/HEK293 cells were cultured under hypoxic conditions (O2 0.1%) for 18 hours. Subsequently, the cells were washed with phosphate buffer, lysed with lysis buffer, and then the luciferase reagent (Promega) for luciferase analysis was added. Afterward, changes in HRE expression levels associated with HIF-1 signaling were evaluated by measuring luminescence using an Infinite200 (Tecan).

[1] = HEK293, 18 h, Table 2 (Examples 37-74, 52), read-out: HKt-increasing 10uM
[2] = HEK293, 18 h, Table 2 (Examples 37-74, 52), read-out: HKt-increasing 100uM
[3] = HEK293, 18 h, Table 2 (Examples 75-109, 114), read-out: HRE-inceasing 10uM
[4] = HEK293, 18 h, Table 2 (Examples 75-109, 114), read-out: HRE-inceasing 100uM
[5] = HEK293, fold increase of HRE expression, hypoxic conditions (O2 0.1%) 18 hours, Table 2, read-out: HRE-increasing 10uM
[6] = HEK293, fold increase of HRE expression, hypoxic conditions (O2 0.1%) 18 hours, Table 2, read-out: HRE-increasing 100uM

| Compound | fold induction at 10 µM [1] | fold induction at 100 µM [2] | fold induction at 10 µM [3] | fold induction at 100 µM [4] | other results |
| --- | --- | --- | --- | --- | --- |
| CC(C)c1ccc(Oc2ccc(O[C@@H]3C[C@@H](O)[C@@H](O)CO3)cc2)cc1 [Example 66, (3S,4R,6R)-6-(4-(4-isopropylphenoxy)phenoxy)tetrahydro-2H-pyran-3,4-diol] | 2.9 | 2.2 | – | – | – |
| CCc1ccc2c(-c3ccc(O[C@@H]4OC[C@H](O)[C@H](O)[C@H]4O)cc3)coc2c1 [Example 96, (2S,3R,4S,5S)-2-(4-(6-ethylbenzofuran-3-yl)phenoxy)tetrahydro-2H-pyran-3,4,5-triol] | – | – | 2.6 | 2.9 | – |
| CC(C)c1ccc(Cc2ccc(O[C@H]3OC[C@H](O)[C@H](O)[C@H]3O)cc2F)cc1 [Example 48, (2R,3R,4S,5S)-2-(3-fluoro-4-(4-isopropylbenzyl)phenoxy)tetrahydro-2H-pyran-3,4,5-triol] | 1.3 | 2.3 | – | – | – |
| Cc1ccc2c(ccn2-c2ccc(O[C@H]3OC[C@H](O)[C@H](O)[C@H]3O)cc2)c1 [Example 90, (2R,3R,4S,5S)-2-(4-(5-methyl-1H-indol-1-yl)phenoxy)tetrahydro-2H-pyran-3,4,5-triol] | – | – | 1.7 | 2.4 | – |
| Cc1ccc2oc(-c3ccc(O[C@H]4OC[C@H](O)[C@H](O)[C@H]4O)c(Cl)c3)nc2c1 [Example 99, (2R,3R,4S,5S)-2-(2-chloro-4-(5-methylbenzo [d]oxazol-2-yl)phenoxy)tetrahydro-2H-pyran-3,4,5-triol] | – | – | 2.8 | 3.6 | – |
| COc1ccc(Cc2ccc(O[C@H]3OC[C@@H](O)[C@H](O)[C@H]3O)cc2)cc1 [Example 42, (2R,3R,4S,5R)-2-(4-(4-methoxybenzyl)phenoxy) tetrahydro-2H-pyran-3,4,5-triol] | 2.4 | 3.1 | – | – | – |
| COc1ccc(Cc2ccc(O[C@H]3OC[C@H](O)[C@H](O)[C@H]3O)cc2F)cc1 [Example 47, (2R,3R,4S,5S)-2-(3-fluoro-4-(4-methoxybenzyl)phenoxy)tetrahydro-2H-pyran-3,4,5-trio] | 1 | 1.2 | – | – | – |
| CC(C)c1ccc(Cc2ccc(O[C@H]3OC[C@H](O)[C@H](O)[C@H]3O)cc2Cl)cc1 [Example 40, (2R,3R,4S,5S)-2-(3-chloro-4-(4-isopropylbenzyl)phenoxy)tetrahydro-2H-pyran-3,4,5-triol] | 2.6 | 3.1 | – | – | – |
| COc1ccc(Cc2ccc(O[C@H]3OC[C@H](O)[C@H](O)[C@H]3O)cc2)cc1Cl [Example 37, (2R,3R,4S,5S)-2-(4-(3-chloro-4-methoxybenzyl)phenoxy)tetrahydro-2H-pyran-3,4,5-triol] | 1.1 | 1.3 | – | – | – |
| CCc1ccc2c(-c3ccc(O[C@H]4OC[C@H](O)[C@H](O)[C@H]4O)cc3)coc2c1 [Example 95, (2R,3R,4S,5S)-2-(4-(6-ethylbenzofuran-3-yl)phenoxy) tetrahydro-2H-pyra-3,4,5-triol] | – | – | 2.6 | 3.1 | – |
| COc1ccc(Cc2ccc(O[C@@H]3OC[C@H](O)[C@H](O)[C@H]3O)cc2)cc1 [Example 4] | – | – | – | – | fold induction at 10 µM [5]: 1.1; fold induction at 100 µM [6]: < 1; HRE assay (increase in HRE expression levels by the test substance relative to the vehicle in HRE/Luc/HEK293 cells): α |
| CC(C)c1ccc(-c2ccc(O[C@H]3OC[C@H](O)[C@H](O)[C@H]3O)cc2)cc1 [Example 86, (2R,3R,4S,5S)-2-((4'-isopropyl-[1,1'-biphenyl]-4-yl)oxy) tetrahydro-2 H-pyran-3,4,5-triol] | – | – | 1.9 | 3.2 | – |
| O[C@@H]1[C@@H](O)[C@H](Oc2ccc(Cc3cccnc3)cc2)OC[C@@H]1O [Example 24, (2S,3R,4S,5S)-2-(4-(pyridin-3-ylmethyl)phenoxy)tetrahydro-2H-pyran-3,4,5-triol] | – | – | – | – | fold induction at 10 µM [5]: 1.1; fold induction at 100 µM [6]: 1.1 |
| CC(C)c1ccc2nc(-c3ccc(O[C@H]4OC[C@H](O)[C@H](O)[C@H]4O)cc3)oc2c1 [Example 88, (2R,3R,4S,5S)-2-(4-(6-isopropylbenzo[d]oxazol-2-yl)phenoxy)tetrahydro-2H-pyran-3,4,5-triol] | – | – | 1.7 | 3.1 | – |
| Cc1ccc2oc(-c3ccc(O[C@@H]4OC[C@H](O)[C@H](O)[C@H]4O)cc3)nc2c1 [Example 108, (2S,3R,4S,5S)-2-(4-(5-methylbenzo[d]oxazol-2-yl)phenoxy)tetrahydro-2H-pyran-3,4,5-triol] | – | – | 3.6 | 1.6 | HRE expression (low concentration of 1 µM): more than threefold |
| CC(C)c1ccc(Oc2ccc(O[C@H]3OC[C@H](O)[C@H](O)[C@H]3N=[N+]=[N-])cc2)cc1 [Example 69, (3S,4R,5R,6R)-5-azido-6-(4-(4-isopropylphenoxy)phenoxy) tetrahydro-2H-pyra-3,4-diol] | 1.7 | 3 | – | – | – |
| Cc1ccc2oc(-c3ccc(O[C@@H]4OC[C@H](O)[C@H](O)[C@H]4O)c(Cl)c3)nc2c1 [Example 100, (2S,3R,4S,5S)-2-(2-chloro-4-(5-methylbenzo[d]oxazol-2-yl)phenoxy) tetrahydro-2H-pyran-3,4,5-triol] | – | – | 2.7 | 2.4 | – |
| CC(C)c1ccc(Cc2ccc(S[C@@H]3OC[C@H](O)[C@H](O)[C@H]3O)cc2)cc1 [Example 28, (2S,3R,4S,5S)-2-((4-(4-isopropylbenzyl)phenyl)thio) tetrahydro-2H-pyran-3,4,5-triol] | – | – | – | – | fold induction at 10 µM [5]: 1.8 |
| CC(C)Oc1ccc(Cc2ccc(O[C@H]3OC[C@H](O)[C@H](O)[C@H]3O)cc2)cc1 [Example 44] | 1.1 | 1.3 | – | – | – |
| COc1cc(Cc2ccc(O[C@H]3OC[C@H](O)[C@H](O)[C@H]3O)cc2)cc(OC)c1OC [Example 18, (2R,3R,4S,5S)-2-(4-(3,4,5-trimethoxybenzyl)phenoxy) tetrahydro-2H-pyran-3,4,5-triol] | – | – | – | – | fold induction at 10 µM [5]: 1.2; fold induction at 100 µM [6]: 1.3 |
| CC(C)c1ccc2nc(-c3ccc(O[C@@H]4OC[C@H](O)[C@H](O)[C@H]4O)cc3)oc2c1 [Example 89, (2S,3R,4S,5S)-2-(4-(6-isopropylbenzo[d]oxazol-2-yl)phenoxy)tetrahydro-2H-pyran-3,4,5-triol] | – | – | 2.8 | < 1 | – |
| COc1ccc2oc(-c3ccc(O[C@H]4OC[C@H](O)[C@H](O)[C@H]4O)cc3)nc2c1 [Example 91, (2R,3R,4S,5S)-2-(4-(5-methoxybenzo[d]oxazol-2-yl)phenoxy)tetrahydro-2H-pyran-3,4,5-triol] | – | – | 2.4 | 2.8 | – |
| CO[C@H]1[C@@H](Oc2ccc(Oc3ccc(C(C)C)cc3)cc2)OC[C@H](O)[C@@H]1O [Example 62, (3S,4S,5R,6R)-6-(4-(4-isopropylphenoxy)phenoxy)-5-methoxytetrahydro-2H-pyran 3,4-diol] | 2.3 | 2.2 | – | – | – |
| CC(C)c1ccc(Oc2ccc(O[C@H]3OC[C@H](F)[C@H](O)[C@H]3O)cc2)cc1 [Example 58, (2R,3R,4R,5S)-5-fluoro-2-(4-(4-isopropylphenoxy)phenoxy)tetrahydro-2H-pyran-3,4-diol] | 2.6 | 2.2 | – | – | – |
| COc1ccc(Cc2ccc(O[C@H]3OC[C@H](O)[C@H](O)[C@H]3OC(=O)CCCCCCCCCN)cc2)cc1 [Example 79, (2R,3R,4S,5S)-4,5-dihydroxy-2-(4-(4-methoxybenzyl)phenoxy)tetrahydro-2H-pyran-3-yl 10-aminodecanoate] | – | – | 1 | 1.7 | – |
| COc1ccc(Cc2ccc(O[C@H]3OC[C@H](O)[C@H](O)[C@H]3OC)cc2)cc1 [Example 5, (3S,4S,5R,6R)-5-methoxy-6-(4-(4-methoxybenzyl)phenoxy)tetrahydro-2H-pyran-3,4-diol] | – | – | – | – | fold induction at 10 µM [5]: 1.2; fold induction at 100 µM [6]: 1.9 |
| O[C@@H]1[C@@H](O)[C@@H](O)CO[C@@H]1Sc1ccc(Cc2ccccc2)cc1 [Example 26, (2R,3R,4S,5S)-2-((4-benzylphenyl)thio)tetrahydro-2H-pyran-3,4,5-thiol] | – | – | – | – | fold induction at 10 µM [5]: 2.1; fold induction at 100 µM [6]: 2.5 |
| Cc1cc(C)cc(Oc2ccc(O[C@H]3OC[C@H](O)[C@H](O)[C@H]3O)cc2)c1 [Example 34, (2R,3R,4S,5S)-2-(4-(3,5-dimethylphenoxy)phenoxy)tetrahydro-2H-pyran-3,4,5-triol] | – | – | – | – | fold induction at 10 µM [5]: 1.1; fold induction at 100 µM [6]: 1 |
